Results reported in patent US10315999B2, “Processes for the preparation of pesticidal compounds” (Dow AgroSciences LLC, priority 2013, dated 2019).
Where a name gives a salt, the structure may show the parent alone. Read-outs that look alike come from different tables or passages of the source.

Key:
[1] = tested on: Green Peach Aphid (Myzus persicae) (MYZUPE); assay: Bioassay on Green Peach Aphid (GPA), cabbage seedling foliar spray; format: in vivo; details: 72 h, read-out: MYZUPE rating (% Control of Mortality, Abbott corrected)
Method: Several molecules disclosed herein were tested against GPA using procedures described below.
Cabbage seedling grown in 3-in pots, with 2-3 small (3-5 cm) true leaves, were used as test substrate. The seedlings were infested with […] (wingless adult and nymph stages) one day prior to chemical application. Four pots with individual seedlings were used for each treatment. Test compounds (2 mg) were dissolved in 2 mL of acetone/MeOH (1:1) solvent, forming stock solutions of 1000 ppm test compound. The stock solutions were diluted 5× with 0.025% Tween 20 in water to obtain the solution at 200 ppm test compound. A hand-held aspirator-type sprayer was used for spraying a solution to both sides of the cabbage leaves until runoff. Reference plants (solvent check) were sprayed with the diluent only containing 20% by volume acetone/MeOH (1:1) solvent. Treated plants were held in a holding room for three days at approximately 25° C. and ambient relative humidity (RH) prior to grading. Evaluation was conducted by counting the number of live aphids per plant under a microscope. Percent Control was measured by using Abbott's correction formula (W. S. Abbott, “A Method of Computing the Effectiveness of an Insecticide” J. Econ. Entomol 18 (1925), pp. 265-267) as follows. Corrected % Control=100*(X−Y)/X • where • X=No. of live aphids on solvent check plants and • Y=No. of live aphids on treated plants
The results are indicated in the table entitled “Table 1: GPA (MYZUPE) and sweetpotato whitefly-crawler (BEMITA) Rating Table”.

[2] = tested on: Sweetpotato Whitefly Crawler (Bemisia tabaci) (BEMITA); assay: Bioassay on Sweetpotato Whitefly Crawler, cotton plant foliar spray; format: in vivo; details: read-out: BEMITA rating (% Control of Mortality, Abbott corrected)
Method: Cotton plants grown in 3-inch pots, with 1 small (3-5 cm) true leaf, were used at test substrate. The plants were placed in a room with whitely adults. Adults were allowed to deposit eggs for 2-3 days. After a 2-3 day egg-laying period, plants were taken from the adult whitefly room. Adults were blown off leaves using a hand-held Devilbliss sprayer (23 psi). Plants with egg infestation (100-300 eggs per plant) were placed in a holding room for 5-6 days at 82° F. and 50% RH for egg hatch and crawler stage to develop. Four cotton plants were used for each treatment. Compounds (2 mg) were dissolved in 1 mL of acetone solvent, forming stock solutions of 2000 ppm. The stock solutions were diluted 10× with 0.025% Tween 20 in water to obtain a test solution at 200 ppm. A hand-held Devilbliss sprayer was used for spraying a solution to both sides of cotton leaf until runoff. Reference plants (solvent check) were sprayed with the diluent only. Treated plants were held in a holding room for 8-9 days at approximately 82° F. and 50% RH prior to grading. Evaluation was conducted by counting the number of live nymphs per plant under a microscope.

[3] = 200 ppm spray on cabbage seedlings, live aphids counted after three days
[4] = 200 ppm spray on cotton plants, live nymphs counted after 8-9 days

Structure (SMILES)	mortality at 200 ppm [1, 3]	mortality at 200 ppm [2, 4]	mortality at 200 ppm [1]	mortality at 200 ppm [2]
CC(=O)Nc1cn(-c2cccnc2)nc1Cl [Compound 1c, N-(3-Chloro-1-(pyridin-3-yl)-1H-pyrazol-4-yl)acetamide]	0 to 80%	0 to 80%		
CC(=O)Nc1c[nH]nc1Cl [Compound 1b, N-(3-Chloro-1H-pyrazol-4-yl)acetamide]	0 to 80%	0 to 80%		
Nc1c[nH]nc1Cl [Compound 1a, 3-Chloro-1H-pyrazol-4-amine hydrochloride]			0 to 80%	0 to 80%
CCN(C(=O)CC[S+]([O-])CCC(F)(F)F)c1cn(-c2cccnc2)nc1Cl (stereo not drawn) [Compound 8.1, N-(3-Chloro-1-(pyridin-3-yl)-1H-pyrazol-4-yl)-N-ethyl-3-((3,3,3-trifluoropropyl)sulfoxo)propanamide]	80 to 100%	80 to 100%		
CCN(C(=O)CCSCCC(F)(F)F)c1cn(-c2cccnc2)nc1Cl [Compound 5.1, N-(3-Chloro-1-(pyridin-3-yl)-1H-pyrazol-4-yl)-N-ethyl-3-((3,3,3-trifluoropropyl)thio)propanamide]	80 to 100%	80 to 100%		
CCNc1cn(-c2cccnc2)nc1Cl [Compound 1d, 3-Chloro-N-ethyl-1-(pyridin-3-yl)-1H-pyrazol-amine]	0 to 80%	0 to 80%		
